Data published in patent US20210038668A1, “TRADITIONAL CHINESE MEDICINE COMPOSITION FOR PREVENTING AND/OR TREATING ISCHEMIC REPERFUSION INJURY” (TASLY PHARMACEUTICAL GROUP CO., LTD., priority 2018, published 2021).

Tests used:
Bcl-2 = test: Western blotting of Bcl-2, endothelial cells after hypoxia/reoxygenation; assay type: cell-based; conditions: rat brain endothelial cells, hypoxia 4.5 h/reoxygenation 3 h; tPA 20 mcg/ml alone (model group); T541 400 mcg/ml + tPA 20 mcg/ml
Source text: (§1) Establishment of rat brain endothelial cell H/R model: rat brain endothelial cells were purchased from ATCC, and then subcultured to 5-6 generations in normal conditions for further experiment. […]

Claudin-5 = test: Western blotting of Claudin-5, endothelial cells after hypoxia/reoxygenation; assay type: cell-based; conditions: rat brain endothelial cells, hypoxia 4.5 h/reoxygenation 3 h; tPA 20 mcg/ml alone (model group); T541 400 mcg/ml + tPA 20 mcg/ml
Source text: as §1

cerebral infarction = test: TTC infarct size, mice after thrombolysis; assay type: in vivo, C57BL/6 mice; conditions: 24 h after administration, tPA 10 mg/kg alone, T541 20 mg/kg + tPA 10 mg/kg
Protocol: After reperfused for 24 hours, mice were perfused via heart by a PBS buffer precooled at 4° C. and separated brain via craniotomy; the brain was cut from front to back into 5 slices in a brain stereotaxic apparatus; bleeding condition was rapidly shoot in cold condition; then slices were put into 2% triphenyltetrazolium chloride, TTC for incubation for 15 minutes at […]; TTC staining was conducted. Non-infarct region was stained red and infarct region was not stained and still white. Brain TTC staining images were shoot and IamgeJ (Bethesda, Md., USA) was used to calculate a percentage of TTC staining infarct size in the total area of brain, and evaluate the degree of cerebral infarction.

JAM-1 = test: Western blotting of JAM-1, endothelial cells after hypoxia/reoxygenation; assay type: cell-based; conditions: rat brain endothelial cells, hypoxia 4.5 h/reoxygenation 3 h; tPA 20 mcg/ml alone (model group); T541 400 mcg/ml + tPA 20 mcg/ml
Source text: as §1

[1] = system: brain surface postcapillary venule; test: Plasma albumin leakage of brain surface postcapillary venule; assay type: in vivo, C57BL/6 mice; conditions: 24 h after administration; tPA 10 mg/kg alone; T541 20 mg/kg + tPA 10 mg/kg
Protocol: Plasma albumin leakage: femoral venous cannula of mice was conducted under a stereoscopic microscope (PE/08, outer diameter: 0.36 mm and inner diameter: 0.20 mm). Mice were fixed on an observation board for brain microcirculation in prone position; parietal skin of mice was cut off to expose right parietal bone; the whole parietal bone was thinned by grinding by a hand-held cranial drill till there is only one layer of soft bone cortex under the stereoscopic microscope. FITC-labelled plasma albumin (excitation wavelength: 420-490 nm, emission wavelength: 520 nm) was slowly injected via femoral vein. 10 minutes later, fluorescence images of postcapillary venule, artery in the dominant region of middle cerebral artery and artery in the dominant region of anterior cerebral artery among […] (diameter) on the surface of the mice brain after reperfused for 24 hours by an upright fluorescent microscope linked to hypersensitive fluorescent CCD; then leakage of plasma albumin was analyzed. Fluorescence intensity inside (Iv) and outside (Ii) venule was calculated by an image analysis software ImageJ (Bethesda, Md., USA); the leakage of plasma albumin is denoted by Ii/Iv.

Collagen IV = test: Western blotting of Collagen IV, basement membrane; assay type: in vivo, C57BL/6 mice; conditions: brain tissue 24 hours after administration, sham = 1.00; tPA 10 mg/kg alone; T541 20 mg/kg + tPA 10 mg/kg
Protocol: After reperfused for 24 hours, mice were perfused by normal saline; Western blotting analysis was conducted to the penumbra field of infarcted right cerebral cortex. After perfused, mice brain tissue was taken out; cerebellum and prefrontal lobe were cut off; the brain tissue of right brain close to 1 cm of the central joint of left and right hemispheres along the sagittal view; infarcted penumbra field of the rest tissues was cut off along an 45° angle; the cerebral cortex of the penumbra field was peeled off and preserved at low temperature. Right cerebral cortex was taken and added 1×RIPA lysate and a Cocktail protease inhibitor (1:100, Cell Signaling Technology, US) for full pyrolysis and ultrasonic treatment, and then 17000 g were centrifuged for 30 minutes. Supernatant was taken and added 5×loading buffer by volume, boiled for 20 minutes in boiling water, and then preserved at −80° C. Excessive supernatant was taken out and quantified by a BCA protein quantification liquor (ThermoScientific, US) to measure absorbance value at 560 nm of ELIASA and to calculate the protein concentration according to a standard curve. […] The density of electrophoretic strips was analyzed by an image analysis software Quantityone. […]

tPA: tissue-type plasminogen activator (tPA) for thrombolysis
Bcl-2 (Bcl-2): 0.69 ± 0.12
Claudin-5/β-actin (Claudin-5): 0.40 ± 0.06
Infarct size (cerebral infarction): 15.68 ± 4.81
JAM-1/β-actin (JAM-1): 0.64 ± 0.05
Albumin exudation ratio of venule % [1]: 125.10 ± 3.53 %
Collagen IV content (Collagen IV): 0.68 ± 0.04
